In patent publication US20110112132A1, “MEANS FOR THE TREATMENT OF ACUTE AND CHRONIC DISORDERS OF CEREBRAL CIRCULATION, INCLUDING INSULT, BASED ON HYDROGENATED PYRIDO (4,3-B) INDOLES (VARIANTS), PHARMACOLOGICAL MEANS BASED THEREON AND METHOD FOR THE USE THEREOF” (Medivation Neurology, Inc., priority 2006, published 2011):
Structures can show the parent of a compound that is named as a salt. Marks after values point to notes of the source that are not given here.

How the values were obtained:
[1] = tested on: rats with cerebral ischemia induced by ligation of the carotid arteries; assay: Rat brain ischemia by ligation of the carotid arteries: neurological deficit, McGraw Stroke index; format: in vivo; conditions: 0.1 mg/kg i.p.
Procedure: Rat brain ischemia, produced by irreversible occlusion of the carotid arteries, was performed in accordance with “Methodological instructions for the experimental study of preparations for the treatment of cerebral circulation and migraine,” in “Handbook on the experimental (preclinical) study of new pharmacological substances,” Meditsina, Moscow, 2005, pp. 332-338.
Experiments were performed on cross-bred male white rats weighing 200-250 g, anesthetized with chloral hydrate (350 mg/kg, i/p). Irreversible single-step bilateral ligation of the common carotid arteries was performed on the animals. In the group of sham-operated animals, the ligatures were applied to the vessels but were not tightened.
After completing the operation, the animals were divided randomly into groups: group one rats were given dimebon intraperitoneally at 0.1 mg/kg administered 30 minutes after the ligature was tied, then daily for 14 days after operation; group two rats were given nimodipine intraperitoneally at 0.1 mg/kg administered 30 minutes after the ligature was tied, then daily for 14 days after operation. Group one and group two animals were experiencing an acute cerebral circulation disturbance at the time of drug administration. Control group and sham-operated animals were given equivalent volumes of physiological saline (0.9% sodium chloride) at the same times.
Neurological deficit in animals with cerebral ischemia induced by ligation of the carotid arteries was determined using the McGraw Stroke index as modified by I. V. Gannushkina (Functional angioarchitectonics of the brain (1977) (Moscow, Meditsina) p. 224). The severity of the condition was determined from the sum of the corresponding scores. The number of rats with mild symptoms up to 2.5 points on the Stroke-index scale (sluggish movements, limb weakness, hemiptosis, tremor, circular movements) and with severe manifestations of neurological impairment (from 3 to 10 points)—limb paresis, paralysis of lower limbs, lateral position, was noted.

AMPA receptors = conditions: rat brain neurons; cited from earlier work
NMDA receptors = conditions: rat brain neurons; cited from earlier work
[2] = tested on: rats with hemorrhagic insult; assay: Intracerebral post-traumatic hematoma (hemorrhagic insult) model: death of animals; format: in vivo, rat; conditions: 0.1 mg/kg i.p.; entire period of observation
Procedure: (§1) The study was performed in accordance with the “Methodological instructions for the experimental study of preparations for the treatment of cerebral circulation and migraine,” in “Handbook on the experimental (preclinical) study of new pharmacological substances,” Meditsina, Moscow, 2005, pp. 332-338, as modified by A. N. Makarenko et al. (“Method for modeling local hemorrhage in various brain structures in experimental animals,” Zh. vyssh. nervn. deyat. (2002) 52(6):765-768).
The experiments were performed on cross-bred male white rats weighing 200-250 g, kept in a vivarium with free access to food (standard pelleted feed) and water, and with natural alternation of day and night. […]
The animals were divided into 4 groups: sham-operated, a group of animals with hemorrhagic insult, animals with hemorrhagic insult which received dimebon intraperitoneally at a dose of 0.1 mg/kg, and animals with hemorrhagic insult which received nimodipine intraperitoneally at a dose of 0.1 mg/kg. The effects of the substances were recorded 24 hours, and 3, 7 and 14 days after operation. […]
Rat deaths were recorded over the entire 14 day period of observation. […]

[3] = tested on: rats with hemorrhagic insult; assay: Intracerebral post-traumatic hematoma (hemorrhagic insult) model: neurological deficit, McGraw Stroke index; format: in vivo, rat
Procedure: as §1
The experiments were performed on cross-bred male white rats weighing 200-250 g, kept in a vivarium with free access to food (standard pelleted feed) and water, and with natural alternation of day and night. Using a special device (mandrin-knife) and stereotaxis, brain tissue of rats anesthetized with nembutal (40 mg/kg, i/m) was destroyed in the region of the capsule interna, with subsequent (after 2-3 minutes) introduction into the damage site of blood taken from under the rat's tongue (0.02-0.03 ml). Scalping and trepanning of the skull were performed on sham-operated animals.
The animals were divided into 4 groups: sham-operated, a group of animals with hemorrhagic insult, animals with hemorrhagic insult which received dimebon intraperitoneally at a dose of 0.1 mg/kg, and animals with hemorrhagic insult which received nimodipine intraperitoneally at a dose of 0.1 mg/kg. The effects of the substances were recorded 24 hours, and 3, 7 and 14 days after operation.
Dimebon and nimodipine were administered intraperitoneally to animals with insult in an identical dose of 0.1 mg/kg 3-3.5 hours after operation, and then daily for 14 days after operation. An equal volume of physiological saline was administered intraperitoneally to the control groups of animals at identical intervals. Each group consisted of 9-18 animals at the start of the experiment.
The neurological deficit in the animals was determined using the McGraw Stroke index as modified by I. V. Gannushkina (Functional angioarchitectonics of the brain (1977) (Moscow, Meditsina) p. 224). The severity of the condition was determined from the sum of the corresponding scores. The number of rats with mild symptoms up to 2.5 points on the Stroke-index scale (sluggish movements, limb weakness, unilateral hemiptosis, tremor, circular movements) and with severe manifestations of neurological impairment (from 3 to 10 points)—limb paresis, paralysis of lower limbs, lateral position, was noted.

[4] = 24 hours after operation (hemorrhagic insult), 0.1 mg/kg i.p.
[5] = 14 days after operation (hemorrhagic insult), 0.1 mg/kg i.p. daily

SMILES	Number of animals with bilateral hemiptosis ([1]; 1 day after ischemic insult)	Number of animals with limb weakness ([1]; 1 day after ischemic insult)	Number of animals with sluggish, slow movements ([1]; 1 day after ischemic insult)	Number of animals with unilateral hemiptosis ([1]; 1 day after ischemic insult)	Number of animals with bilateral hemiptosis ([1]; 3 days after ischemic insult)	Number of animals with limb weakness ([1]; 3 days after ischemic insult)	Number of animals with sluggish, slow movements ([1]; 3 days after ischemic insult)	Number of animals with unilateral hemiptosis ([1]; 3 days after ischemic insult)	Number of animals with bilateral hemiptosis ([1]; 7 days after ischemic insult)	Number of animals with limb weakness ([1]; 7 days after ischemic insult)	Number of animals with sluggish, slow movements ([1]; 7 days after ischemic insult)	Number of animals with unilateral hemiptosis ([1]; 7 days after ischemic insult)	Number of animals with bilateral hemiptosis ([1]; 14 days after ischemic insult)	Number of animals with limb weakness ([1]; 14 days after ischemic insult)	Number of animals with sluggish, slow movements ([1]; 14 days after ischemic insult)	Number of animals with unilateral hemiptosis ([1]; 14 days after ischemic insult)	Number of animals with unilateral ptosis ([1]; 14 days after ischemic insult)	Number of animals with circular movements [3, 4]	Number of animals with limb weakness [3, 4]	Number of animals with paresis of 1-4 limbs [3, 4]	other results
Cc1ccc2c(c1)c1c(n2CCc2ccc(C)nc2)CCN(C)C1 [dimebon, 2,8-dimethyl-5-[2-(6-methyl-pyridyl-3-)ethyl]2,3,4,5-tetrahydro-1H-pyrido[4,3-b]indole dihydrochloride]	33.3* %	16.7%	33.3* %	16.7%	25.0* %	16.7%	33.3%	0%	9.1* %	9.1%	9.1* %	0%	0%	0%	0%	0%	0%	33%	66%	33%	Effect on neurological deficit in rats with ischemia, in words ([1]; first and particularly seventh day after operation): prevented the development of neurological deficit; Effect on transmembrane currents induced by the activation of AMPA receptors, in words (AMPA receptors): potentiates the transmembrane currents; Effect on NMDA receptors, in words (NMDA receptors): blocks the NMDA receptors; Effect on death of animals after hemorrhagic insult, in words [2]: almost completely prevented the death of animals; Effect on number of animals with pareses after hemorrhagic insult, in words ([3]; 0.1 mg/kg i.p., first day of observation): almost halving the number of animals with pareses; Number of animals with sluggish, slow movements [3, 4]: 88%; Number of animals with circular movements [3, 5]: 0%; Number of animals with limb weakness [3, 5]: 7%; Number of animals with paresis of 1-4 limbs [3, 5]: 0%; Number of animals with sluggish, slow movements [3, 5]: 7%
COCCOC(=O)C1=C(C)NC(C)=C(C(=O)OC(C)C)C1c1cccc([N+](=O)[O-])c1 (stereo not shown) [nimodipine, reference compound]	50%	20%	50%	20%	20* %	0%	30%	20%	20* %	10%	0%	0%	0%	0%	0%	0%	0%	25%	50%	25* %	Number of animals with sluggish, slow movements [3, 4]: 50%; Number of animals with circular movements [3, 5]: 0%; Number of animals with limb weakness [3, 5]: 0%; Number of animals with paresis of 1-4 limbs [3, 5]: 0* %; Number of animals with sluggish, slow movements [3, 5]: 16.6%
